From ChEMBL document CHEMBL1150515, “Synthesis and structure-activity relationships of novel THF 1-methylcarbapenems II” (1997)

Assays:
[1] = Antimicrobial activity against Morganella morganii (GC 2213); assay type: functional
Pseudomonas aeruginosa [2] = experiment: Antimicrobial activity against Pseudomonas aeruginosa (GC 1544 OprD); assay type: functional
Staphylococcus aureus [3] = experiment: Antimicrobial activity against Staphylococcus aureus (ATCC 29213); assay type: functional
[4] = Antimicrobial activity against Enterococcus faecium (GC 1182); assay type: functional
Escherichia coli [5] = experiment: Antimicrobial activity against Escherichia coli (ATCC 25922); assay type: functional
Escherichia coli [6] = experiment: Antimicrobial activity against Escherichia coli (GC 2205); assay type: functional
[7] = test system: Acinetobacter calcoaceticus; experiment: Antimicrobial activity against Acinetobacter calcoaceticus (GC 756); assay type: functional
Staphylococcus aureus [8] = experiment: Antimicrobial activity against methicillin - resistant Staphylococcus aureus (GC 2220); assay type: functional
Escherichia coli [9] = experiment: Antimicrobial activity against Escherichia coli (GC 1792); assay type: functional
Pseudomonas aeruginosa [10] = experiment: Antimicrobial activity against Pseudomonas aeruginosa (ATCC 27853); assay type: functional
[11] = Antimicrobial activity against Enterobacter cloacae (GC 2209); assay type: functional
[12] = Antimicrobial activity against Citrobacter freundii (GC 2211); assay type: functional
[13] = Antimicrobial activity against Xanthomonas maltophilia (GC 562); assay type: functional; settings: Stenotrophomonas maltophilia
[14] = Antimicrobial activity against Enterococcus faecalis (GC 842); assay type: functional
[15] = target: T1, Dipeptidase 1 (Sus scrofa) (UniProt P22412); experiment: Relative hydrolysis to that of imipenem was determined by hog renal dehydropeptidase
T1 sequence (whole entry): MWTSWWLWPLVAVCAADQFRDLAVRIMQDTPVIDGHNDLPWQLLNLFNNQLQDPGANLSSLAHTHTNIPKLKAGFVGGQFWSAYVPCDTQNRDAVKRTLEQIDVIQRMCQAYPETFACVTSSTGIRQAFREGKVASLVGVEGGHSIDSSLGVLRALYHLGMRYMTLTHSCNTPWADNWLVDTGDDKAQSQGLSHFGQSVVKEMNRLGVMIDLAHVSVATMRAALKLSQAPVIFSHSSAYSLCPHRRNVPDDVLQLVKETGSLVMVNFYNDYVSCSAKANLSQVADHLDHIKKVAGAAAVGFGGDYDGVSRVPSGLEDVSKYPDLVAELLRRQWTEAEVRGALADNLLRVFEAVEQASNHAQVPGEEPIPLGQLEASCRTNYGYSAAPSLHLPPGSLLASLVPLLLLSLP

Enterococcus faecium = experiment: The compound was evaluated for the antimicrobial activity against Enterococcus faecium (GC 1182); assay type: functional
Staphylococcus aureus [16] = experiment: The compound was evaluated for the antimicrobial activity against methicillin - resistant Staphylococcus aureus (GC 2220); assay type: functional
Enterococcus faecalis = experiment: The compound was evaluated for the antimicrobial activity against Enterococcus faecalis (GC 842); assay type: functional
Staphylococcus aureus [17] = experiment: The compound was evaluated for the antimicrobial activity against Staphylococcus aureus (ATCC 29213); assay type: functional
[18] = test system: Stenotrophomonas maltophilia; experiment: The compound was evaluated for the antimicrobial activity against Xanthomonas maltophilia (GC 562); assay type: functional
[19] = target: T1, Dipeptidase 1 (Sus scrofa); experiment: Relative hydrolysis of compound to that of imipenem was determined by hog renal dehydropeptidase; assay type: functional

SMILES	MIC [1]	MIC (Pseudomonas aeruginosa [2])	MIC (Staphylococcus aureus [3])	MIC [4]	MIC (Escherichia coli [5])	MIC (Escherichia coli [6])	MIC [7]	MIC (Staphylococcus aureus [8])	MIC (Escherichia coli [9])	MIC (Pseudomonas aeruginosa [10])	MIC [11]	MIC [12]	MIC [13]	MIC [14]	Relative hydrolysis [15]	other results
C[C@@H](O)[C@H]1C(=O)N2C(C(=O)[O-])=C(S[C@@H]3CCO[C@@H]3CN)[C@H](C)[C@H]12.[Na+]	0.5 µg/mL	16 µg/mL	≤ 0.06 µg/mL	64 µg/mL	≤ 0.06 µg/mL	≤ 0.06 µg/mL	2 µg/mL	1 µg/mL	≤ 0.06 µg/mL	8 µg/mL	≤ 0.06 µg/mL	≤ 0.06 µg/mL	> 128 µg/mL	0.5 µg/mL	8.5	–
CCN1CCN(C(=O)NC[C@H]2OCC[C@H]2SC2=C(C(=O)[O-])N3C(=O)[C@H]([C@@H](C)O)[C@H]3[C@H]2C)C(=O)C1=O.[Na+]	0.5 µg/mL	32 µg/mL	≤ 0.06 µg/mL	–	≤ 0.06 µg/mL	≤ 0.06 µg/mL	2 µg/mL	–	≤ 0.06 µg/mL	16 µg/mL	≤ 0.06 µg/mL	0.12 µg/mL	> 128 µg/mL	–	9	MIC (Enterococcus faecium): > 128 µg/mL; MIC (Staphylococcus aureus [16]): 8 µg/mL; MIC (Enterococcus faecalis): 4 µg/mL
C[C@@H](O)[C@H]1C(=O)N2C(C(=O)[O-])=C(SC3COC(CN)C3)[C@H](C)[C@H]12.[Na+] (stereo not given in full)	0.25 µg/mL	8 µg/mL	–	> 128 µg/mL	≤ 0.06 µg/mL	≤ 0.06 µg/mL	1 µg/mL	8 µg/mL	0.06 µg/mL	4 µg/mL	≤ 0.06 µg/mL	0.06 µg/mL	–	2 µg/mL	19	MIC (Staphylococcus aureus [17]): ≤ 0.06 µg/mL; MIC [18]: > 128 µg/mL
CC(=O)NC[C@H]1OCC[C@H]1SC1=C(C(=O)[O-])N2C(=O)[C@H]([C@@H](C)O)[C@H]2[C@H]1C.[Na+]	0.5 µg/mL	> 128 µg/mL	0.12 µg/mL	> 128 µg/mL	≤ 0.06 µg/mL	≤ 0.06 µg/mL	16 µg/mL	16 µg/mL	0.12 µg/mL	128 µg/mL	0.5 µg/mL	2 µg/mL	> 128 µg/mL	8 µg/mL	4	–
C[C@H](N)C(=O)NCC1CC(SC2=C(C(=O)[O-])N3C(=O)[C@H]([C@@H](C)O)[C@H]3[C@H]2C)CO1.[Na+] (stereo not given in full)	1 µg/mL	64 µg/mL	0.12 µg/mL	> 128 µg/mL	≤ 0.06 µg/mL	≤ 0.06 µg/mL	8 µg/mL	8 µg/mL	≤ 0.06 µg/mL	32 µg/mL	0.25 µg/mL	1 µg/mL	> 128 µg/mL	4 µg/mL	–	Relative hydrolysis [19]: 10
C[C@@H](O)[C@H]1C(=O)N2C(C(=O)[O-])=C(S[C@@H]3CCO[C@@H]3CN(C)C)[C@H](C)[C@H]12.[Na+]	0.5 µg/mL	32 µg/mL	0.06 µg/mL	64 µg/mL	0.03 µg/mL	0.06 µg/mL	4 µg/mL	4 µg/mL	0.06 µg/mL	16 µg/mL	≤ 0.12 µg/mL	0.25 µg/mL	> 128 µg/mL	1 µg/mL	7.5	–
CC(=O)NCC1CC(SC2=C(C(=O)[O-])N3C(=O)[C@H]([C@@H](C)O)[C@H]3[C@H]2C)CO1.[Na+] (stereo not given in full)	0.5 µg/mL	128 µg/mL	0.12 µg/mL	> 128 µg/mL	≤ 0.06 µg/mL	≤ 0.06 µg/mL	8 µg/mL	16 µg/mL	0.12 µg/mL	64 µg/mL	0.5 µg/mL	2 µg/mL	> 128 µg/mL	8 µg/mL	4	–
C[C@H](N)C(=O)NC[C@H]1OCC[C@H]1SC1=C(C(=O)[O-])N2C(=O)[C@H]([C@@H](C)O)[C@H]2[C@H]1C.[Na+]	1 µg/mL	64 µg/mL	0.12 µg/mL	> 128 µg/mL	≤ 0.06 µg/mL	≤ 0.06 µg/mL	16 µg/mL	8 µg/mL	≤ 0.06 µg/mL	32 µg/mL	0.25 µg/mL	1 µg/mL	> 128 µg/mL	4 µg/mL	12	–
C[C@@H](N)C(=O)NC[C@H]1OCC[C@H]1SC1=C(C(=O)[O-])N2C(=O)[C@H]([C@@H](C)O)[C@H]2[C@H]1C.[Na+]	1 µg/mL	64 µg/mL	≤ 0.06 µg/mL	> 128 µg/mL	≤ 0.06 µg/mL	≤ 0.06 µg/mL	8 µg/mL	8 µg/mL	0.12 µg/mL	64 µg/mL	0.25 µg/mL	1 µg/mL	> 128 µg/mL	2 µg/mL	3	–
C[C@H](N)C(=O)N[C@@H](C)C(=O)NC[C@H]1OCC[C@H]1SC1=C(C(=O)[O-])N2C(=O)[C@H]([C@@H](C)O)[C@H]2[C@H]1C.[Na+]	2 µg/mL	> 128 µg/mL	1 µg/mL	> 128 µg/mL	≤ 0.06 µg/mL	0.12 µg/mL	32 µg/mL	64 µg/mL	≤ 0.06 µg/mL	64 µg/mL	2 µg/mL	8 µg/mL	> 128 µg/mL	4 µg/mL	13	–
